Source: patent US12570655B2, “Cysteine covalent modifiers of AKT1 and uses thereof” (Terremoto Biosciences, Inc., priority 2023, dated 2026)
Like-named read-outs stand apart in the source and are kept apart here.

Tests used:
Format in all cases: cell-based
AKT2 = biological target: T1, AKT2 (Homo sapiens, UniProt P31751); test: Live cell AKT2 target engagement by NanoBRET competitive probe displacement; settings: HEK293 cells transfected with kinase-NanoLuciferase fusion, 2 h at 37° C.
T1 construct: expressed in transfected cells; host or cells: HEK293
Protocol: (§1) Determining Live Cell AKT1 E17K, AKT1 WT, and AKT2 Target Engagement by NanoBRET Competitive Probe Displacement.
(§2) Live cell target engagement assays were performed as described (Vasta, J. D. et al. Cell Chem Biol 2018, 25(11), 206-214). Briefly, HEK293 cells were transfected with plasmids encoding kinase-NanoLuciferase fusion proteins overnight. Cells were then treated with serial dilutions of compound and an ˜EC50 concentration of fluorescently-tagged ATP-competitive tracer (Promega). After incubation for 2 h at 37° C., luciferase substrate and extracellular luciferase inhibitor were added to all wells, and luminescent intensity at 460 nm and 600 nm were measured on a multimode plate-reader. The ratio of E600/E460 was calculated to give the tracer engagement signal (BRET). IC50 values were calculated by fitting BRET values to a log(inhibitor) vs. response Hill equation.

AKT1 WT = biological target: T2, AKT1 WT (Homo sapiens, UniProt P31749); test: Live cell AKT1 WT target engagement by NanoBRET competitive probe displacement; settings: HEK293 cells transfected with kinase-NanoLuciferase fusion, 2 h at 37° C.
T2 construct: expressed in transfected cells; host or cells: HEK293
Protocol: as §1, §2

AKT1 E17K = biological target: T3, AKT1 E17K (Homo sapiens, UniProt P31749, E17K); test: Live cell AKT1 E17K target engagement by NanoBRET competitive probe displacement; settings: HEK293 cells transfected with kinase-NanoLuciferase fusion, 2 h at 37° C.
T3 construct: expressed in transfected cells; host or cells: HEK293
In short: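 IC50 reflects displacement of a fluorescent ATP-competitive tracer, dosed near its EC50, from kinase–NanoLuciferase fusions in live HEK293 cells. Cells were incubated with compound and tracer for 2 h at 37 °C, then E600/E460 BRET was read.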

[1] = system: LAPC4 prostate cancer cells; test: Antiproliferative effects in LAPC4 cells (CellTiter Glo); settings: LAPC4 cells (AKT1 E17K allele), read-out: LAPC4 proliferation IC50
In short: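 Seed 1,000 cells/well in IMDM/12% FBS/1% P/S; add compound dilutions (DMSO); incubate 72 h; read intracellular ATP with CellTiter Glo; fit luminescence to log(inhibitor)-response Hill curve for IC50.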

T3 sequence (P31749 whole entry E17K, the tested form may be a part): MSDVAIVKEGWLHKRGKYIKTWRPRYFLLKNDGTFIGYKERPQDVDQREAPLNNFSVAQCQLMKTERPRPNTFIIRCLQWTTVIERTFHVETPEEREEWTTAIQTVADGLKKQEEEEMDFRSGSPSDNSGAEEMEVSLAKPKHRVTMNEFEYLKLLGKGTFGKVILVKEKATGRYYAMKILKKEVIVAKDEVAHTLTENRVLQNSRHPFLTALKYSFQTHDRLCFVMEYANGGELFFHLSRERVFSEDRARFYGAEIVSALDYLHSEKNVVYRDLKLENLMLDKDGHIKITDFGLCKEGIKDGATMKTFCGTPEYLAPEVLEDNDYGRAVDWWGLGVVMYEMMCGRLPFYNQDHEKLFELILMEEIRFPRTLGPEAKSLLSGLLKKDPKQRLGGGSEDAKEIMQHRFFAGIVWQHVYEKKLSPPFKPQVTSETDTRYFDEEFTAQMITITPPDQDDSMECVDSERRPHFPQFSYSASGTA
T2 sequence (P31749 whole entry, the tested form may be a part): as the sequence (P31749 whole entry E17K, the tested form may be a part) above, with K17E counted along it
T1 sequence (P31751 whole entry, the tested form may be a part): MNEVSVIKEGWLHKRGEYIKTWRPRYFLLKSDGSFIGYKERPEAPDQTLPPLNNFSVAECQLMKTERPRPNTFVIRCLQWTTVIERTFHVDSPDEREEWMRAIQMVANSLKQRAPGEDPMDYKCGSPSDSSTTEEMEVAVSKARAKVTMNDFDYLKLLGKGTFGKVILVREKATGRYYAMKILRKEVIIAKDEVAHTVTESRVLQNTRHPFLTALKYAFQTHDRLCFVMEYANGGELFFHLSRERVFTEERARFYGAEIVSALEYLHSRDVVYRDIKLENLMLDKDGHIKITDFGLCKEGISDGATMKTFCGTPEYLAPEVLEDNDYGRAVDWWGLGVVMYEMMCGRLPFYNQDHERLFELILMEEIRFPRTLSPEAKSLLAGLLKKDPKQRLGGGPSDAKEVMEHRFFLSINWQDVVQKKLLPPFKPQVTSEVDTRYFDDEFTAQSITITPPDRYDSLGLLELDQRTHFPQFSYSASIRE

**Q.** Which IC50 (AKT2) does the source give for C=CC(=O)N1CC2COCC(C1)C2N[C@H]1CCc2cc(-n3c(-c4cccnc4N)nc4ccc(-n5cccn5)nc43)ccc21 (mixture of isomers) [Example 64, 1-(9-(((S)-5-(2-(2-aminopyridin-3-yl)-5-(1H-pyrazol-1-yl)-3H-imidazo[4,5-b]pyridin-3-yl)-2,3-dihydro-1H-inden-1-yl)amino)-3-oxa-7-azabicyclo[3.3.1]nonan-7-yl)prop-2-en-1-one] here?
**A.** 158 nM

**Q.** What about the IC50 (AKT1 WT) of the same compound?
**A.** 20 nM

**Q.** What about the IC50 (AKT1 E17K) of the same compound?
**A.** 53.3 nM

**Q.** And the IC50 ([1]; Homo sapiens, LAPC4, 72 h)?
**A.** 145 nM

**Q.** For C=CC(=O)N1CCC(N[C@@H]2c3ccc(-n4c(-c5ccccc5F)nc5ccc(-n6cccn6)nc54)cc3CC2F)C[C@H]1C (single isomer, unassigned) [Example 319, 1-((2R,4*)-4-(((1R,2*)-2-fluoro-5-(2-(2-fluorophenyl)-5-(1H-pyrazol-1-yl)-3H-imidazo[4,5-b]pyridin-3-yl)-2,3-dihydro-1H-inden-1-yl)amino)-2-methylpiperidin-1-yl)prop-2-en-1-one], which IC50 (AKT2) is on record?
**A.** 301 nM

**Q.** And the IC50 (AKT1 E17K)?
**A.** 49.6 nM

**Q.** And the IC50 ([1]; 72 h)?
**A.** 1600 nM

**Q.** Which IC50 (AKT2) does the source give for C=CC(=O)N1CCC(N[C@@H]2c3ccc(-n4c(-c5ccccc5)nc5ccc(-c6ccccc6)nc54)cc3CC2F)CC1 (single isomer, unassigned) [Example 324, 1-(4-{[(1R,2*)-5-{2,5-diphenylimidazo[4,5-b]pyridin-3-yl}-2-fluoro-2,3-dihydro-1H-inden-1-yl]amino}piperidin-1-yl)prop-2-en-1-one] here?
**A.** 88.1 nM

**Q.** And the IC50 (AKT1 WT)?
**A.** 396 nM

**Q.** What about the IC50 (AKT1 E17K) of the same compound?
**A.** 16.3 nM

**Q.** Which IC50 (AKT2) does the source give for C=CC(=O)N1CCC(N[C@@H]2c3ccc(-n4c(-c5ccccc5)nc5ccc(-c6ccccc6)nc54)cc3CC2F)CC1 (single isomer, unassigned) [Example 325, 1-(4-{[(1R,2*)-5-{2,5-diphenylimidazo[4,5-b]pyridin-3-yl}-2-fluoro-2,3-dihydro-1H-inden-1-yl]amino}piperidin-1-yl)prop-2-en-1-one] here?
**A.** 101 nM

**Q.** And the IC50 (AKT1 WT)?
**A.** 298 nM

**Q.** What about the IC50 (AKT1 E17K) of the same compound?
**A.** 7.92 nM

**Q.** C=CC(=O)N1CCC(N[C@H]2CCc3cc(-n4c(-c5cccnc5N)nc5ccc(-n6cccn6)nc54)ccc32)CC1CC#N (single isomer, unassigned) [Example 326, 2-((2*,4*)-1-acryloyl-4-(((S)-5-(2-(2-aminopyridin-3-yl)-5-(1H-pyrazol-1-yl)-3H-imidazo[4,5-b]pyridin-3-yl)-2,3-dihydro-1H-inden-1-yl)amino)piperidin-2-yl)acetonitrile] was tested. Which IC50 (AKT2) did it give?
**A.** 29.3 nM

**Q.** What about the IC50 (AKT1 WT) of the same compound?
**A.** 98.8 nM

**Q.** What about the IC50 (AKT1 E17K) of the same compound?
**A.** 7.25 nM

**Q.** Which results are given for C=CC(=O)N1CCC(N[C@H]2CCc3cc(-n4c(-c5cccnc5N)nc5ccc(-n6cccn6)nc54)ccc32)CC1CC#N (single isomer, unassigned) [Example 327, 2-((2*,4*)-1-acryloyl-4-(((S)-5-(2-(2-aminopyridin-3-yl)-5-(1H-pyrazol-1-yl)-3H-imidazo[4,5-b]pyridin-3-yl)-2,3-dihydro-1H-inden-1-yl)amino)piperidin-2-yl)acetonitrile]?
**A.** IC50 (AKT2): 99.4 nM; IC50 (AKT1 WT): 204 nM; IC50 (AKT1 E17K): 25.2 nM

**Q.** Which results are given for C=CC(=O)N1CCC(N[C@@H]2c3ccc(-n4c(-c5ccccc5)nc5ccc(-n6cccn6)nc54)cc3CC2F)CC1C(F)F (single isomer, unassigned) [Example 329, 1-((2*,4*)-2-(difluoromethyl)-4-(((1R,2*)-2-fluoro-5-(2-phenyl-5-(1H-pyrazol-1-yl)-3H-imidazo[4,5-b]pyridin-3-yl)-2,3-dihydro-1H-inden-1-yl)amino)piperidin-1-yl)prop-2-en-1-one]?
**A.** IC50 (AKT2): 17.9 nM; IC50 (AKT1 WT): 156 nM; IC50 (AKT1 E17K): 5.37 nM

**Q.** C=CC(=O)N1CCC(N[C@@H]2c3ccc(-n4c(-c5ccccc5)nc5ccc(-n6cccn6)nc54)cc3CC2F)CC1C(F)F (single isomer, unassigned) [Example 330, 1-((2*,4*)-2-(difluoromethyl)-4-(((1R,2*)-2-fluoro-5-(2-phenyl-5-(1H-pyrazol-1-yl)-3H-imidazo[4,5-b]pyridin-3-yl)-2,3-dihydro-1H-inden-1-yl)amino)piperidin-1-yl)prop-2-en-1-one] was tested. Which IC50 (AKT2) did it give?
**A.** 69.3 nM

**Q.** What about the IC50 (AKT1 WT) of the same compound?
**A.** 1480 nM

**Q.** And the IC50 (AKT1 E17K)?
**A.** 31 nM

**Q.** Which results are given for C=CC(=O)N1CCC(N[C@@H]2c3ccc(-n4c(-c5ccccc5)nc5ccc(-n6cccn6)nc54)cc3CC2F)CC1C(F)F (single isomer, unassigned) [Example 331, 1-((2*,4*)-2-(difluoromethyl)-4-(((1R,2*)-2-fluoro-5-(2-phenyl-5-(1H-pyrazol-1-yl)-3H-imidazo[4,5-b]pyridin-3-yl)-2,3-dihydro-1H-inden-1-yl)amino)piperidin-1-yl)prop-2-en-1-one]?
**A.** IC50 (AKT2): 128 nM; IC50 (AKT1 WT): 807 nM; IC50 (AKT1 E17K): 18.1 nM

**Q.** Which results are given for C=CC(=O)N1CCC(N[C@@H]2c3ccc(-n4c(-c5cccnc5N)nc5ccc(-n6ccc(C7CC7)n6)nc54)cc3CC2F)CC1C(F)F (single isomer, unassigned) [Example 334, 1-((2*,4*)-4-(((1*,2*)-5-(2-(2-aminopyridin-3-yl)-5-(3-cyclopropyl-1H-pyrazol-1-yl)-3H-imidazo[4,5-b]pyridin-3-yl)-2-fluoro-2,3-dihydro-1H-inden-1-yl)amino)-2-(difluoromethyl)piperidin-1-yl)prop-2-en-1-one]?
**A.** IC50 (AKT2): 23.5 nM; IC50 (AKT1 WT): 137 nM; IC50 (AKT1 E17K): 6.75 nM

**Q.** What does the source list for C=CC(=O)N1CCC(NC2c3ccc(-n4c(-c5cccnc5N)nc5ccc(-n6ccc(C7CC7)n6)nc54)cc3CC2F)CC1C(F)F (single isomer, unassigned) [Example 335, 1-((2*,4*)-4-(((1*,2*)-5-(2-(2-aminopyridin-3-yl)-5-(3-cyclopropyl-1H-pyrazol-1-yl)-3H-imidazo[4,5-b]pyridin-3-yl)-2-fluoro-2,3-dihydro-1H-inden-1-yl)amino)-2-(difluoromethyl)piperidin-1-yl)prop-2-en-1-one]?
**A.** IC50 (AKT2): 28.3 nM; IC50 (AKT1 WT): 288 nM; IC50 (AKT1 E17K): 9.48 nM

**Q.** C=CC(=O)N1CCC(NC2c3ccc(-n4c(-c5cccnc5N)nc5ccc(-n6ccc(C7CC7)n6)nc54)cc3CC2F)CC1C(F)F (single isomer, unassigned) [Example 336, 1-((2*,4*)-4-(((1*,2*)-5-(2-(2-aminopyridin-3-yl)-5-(3-cyclopropyl-1H-pyrazol-1-yl)-3H-imidazo[4,5-b]pyridin-3-yl)-2-fluoro-2,3-dihydro-1H-inden-1-yl)amino)-2-(difluoromethyl)piperidin-1-yl)prop-2-en-1-one] was tested. Which IC50 (AKT2) did it give?
**A.** 25.4 nM

**Q.** And the IC50 (AKT1 WT)?
**A.** 523 nM

**Q.** And the IC50 (AKT1 E17K)?
**A.** 16.4 nM

**Q.** What does the source list for C=CC(=O)N1CCC(CC2CCc3cc(-n4c(-c5cccnc5N)nc5ccc(-n6cccn6)nc54)ccc32)CC1 (single isomer, unassigned) [Example 343, 1-(4-(((*)-5-(2-(2-aminopyridin-3-yl)-5-(1H-pyrazol-1-yl)-3H-imidazo[4,5-b]pyridin-3-yl)-2,3-dihydro-1H-inden-1-yl)methyl)piperidin-1-yl)prop-2-en-1-one]?
**A.** IC50 (AKT2): 15.9 nM; IC50 (AKT1 WT): 86.1 nM; IC50 (AKT1 E17K): 6.65 nM

**Q.** Which results are given for C=CC(=O)N1CCC(CC2CCc3cc(-n4c(-c5cccnc5N)nc5ccc(-n6cccn6)nc54)ccc32)CC1 (single isomer, unassigned) [Example 344, 1-(4-(((*)-5-(2-(2-aminopyridin-3-yl)-5-(1H-pyrazol-1-yl)-3H-imidazo[4,5-b]pyridin-3-yl)-2,3-dihydro-1H-inden-1-yl)methyl)piperidin-1-yl)prop-2-en-1-one]?
**A.** IC50 (AKT2): 549 nM; IC50 (AKT1 WT): 418 nM; IC50 (AKT1 E17K): 21.4 nM

**Q.** How did the IC50 (AKT2) turn out when C=C(F)C(=O)N1CCC(N[C@H]2CCc3cc(-n4c(-c5cccnc5N)nc5ccc(-n6cccn6)nc54)ccc32)CC1 [Example 46, 1-(4-{[(1S)-5-[2-(2-aminopyridin-3-yl)-5-(pyrazol-1-yl)imidazo[4,5-b]pyridin-3-yl]-2,3-dihydro-1H-inden-1-yl]amino}piperidin-1-yl)-2-fluoroprop-2-en-1-one] was run?
**A.** > 10000 nM

**Q.** And the IC50 (AKT1 WT)?
**A.** 726 nM

**Q.** Which IC50 (AKT2) does the source give for C=CC(=O)N1CCC(N[C@H]2CCc3cc(-n4c(-c5cccnc5N)nc5ccc(-n6ccc(C7(F)CC7)n6)nc54)ccc32)CC1 [Example 323, 1-(4-{[(1S)-5-[2-(2-aminopyridin-3-yl)-5-[3-(1-fluorocyclopropyl)pyrazol-1-yl]imidazo[4,5-b]pyridin-3-yl]-2,3-dihydro-1H-inden-1-yl]amino}piperidin-1-yl)prop-2-en-1-one] here?
**A.** 45.3 nM

**Q.** And the IC50 (AKT1 WT)?
**A.** 263 nM

**Q.** What about the IC50 (AKT1 E17K) of the same compound?
**A.** 6.22 nM

**Q.** Which IC50 (AKT2) does the source give for C=CC(=O)N1C[C@@H]2[C@H](C1)[C@@H]2NC1CCc2cc(-n3c(-c4cccnc4N)nc4ccc(-n5cccn5)nc43)ccc21 (stereo partly drawn) [Example 345, 1-[(1R,5S,6R)-6-({5-[2-(2-aminopyridin-3-yl)-5-(pyrazol-1-yl)imidazo[4,5-b]pyridin-3-yl]-2,3-dihydro-1H-inden-1-yl}amino)-3-azabicyclo[3.1.0]hexan-3-yl]prop-2-en-1-one] here?
**A.** 63.5 nM

**Q.** And the IC50 (AKT1 WT)?
**A.** 268 nM

**Q.** And the IC50 (AKT1 E17K)?
**A.** 34 nM
